# Results taken from patent publication US10093623B2, “Cyclic amides as MetAP-2 inhibitors” (MERCK PATENT GmbH, priority 2012, dated 2018).
# pIC50: −log10 of the molar value.
# Biological target: MetAP-2 (Homo sapiens, UniProt P50579)
# Experiment: MetAP-2 activity measurement (coupled enzymatic reactions, Met-Arg-Ser substrate, dianisidine detection at 450 nm)
# Type: biochemical
# Conditions: Inhibition of MetAP-2; read-out: IC50 enzyme
# Procedure, shortened: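 Rate read from the linear part of the 450 nm absorbance trace. Dianisidine oxidation by peroxidase reports H2O2 made when amino acid oxidase acts on methionine cleaved from MAS tripeptide, one mol dye per mol Met; extinction coefficient gives molar activity.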
# MetAP-2, sequence (P50579 whole entry, species assumed): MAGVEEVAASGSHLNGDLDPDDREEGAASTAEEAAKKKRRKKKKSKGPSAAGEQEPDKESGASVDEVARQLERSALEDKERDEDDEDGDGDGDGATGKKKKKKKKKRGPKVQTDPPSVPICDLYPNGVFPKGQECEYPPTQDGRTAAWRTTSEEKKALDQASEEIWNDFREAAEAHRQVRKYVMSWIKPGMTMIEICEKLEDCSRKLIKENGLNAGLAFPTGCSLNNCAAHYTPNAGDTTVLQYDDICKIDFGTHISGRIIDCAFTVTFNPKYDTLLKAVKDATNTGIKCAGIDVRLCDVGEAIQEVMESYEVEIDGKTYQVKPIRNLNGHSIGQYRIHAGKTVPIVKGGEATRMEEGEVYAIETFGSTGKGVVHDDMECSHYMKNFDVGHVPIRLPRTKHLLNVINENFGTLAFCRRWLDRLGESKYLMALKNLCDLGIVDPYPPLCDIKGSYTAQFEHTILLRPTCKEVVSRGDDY
row,pIC50,Compound
1,6.00 to 8.00,"O=C1N(Cc2ccccc2)CCC[C@]1(O)CNCc1cc(F)cc(Cl)c1 [B54, (S)-1-Benzyl-3-[(3-chloro-5-fluorobenzylamino)methyl]-3-hydroxypiperidin-2-one]"
2,6.00 to 8.00,"O=C(NCc1cc(F)cc(Cl)c1)[C@@]1(O)CCN(c2ccc3[nH]cc(C(F)(F)F)c3c2)C1=O [B74, N-(3-Chloro-5-fluorobenzyl)-(S)-3-hydroxy-2-oxo-1-(3-trifluoro-methyl-1H-indol-5-yl)pyrrolidine-3-carboxamide]"
3,5.00 to 6.00,"O=C1N(Cc2cccc(F)c2F)CCC[C@@]1(O)CNCc1cccc(F)c1 [B23, (R)-1-(2,3-Difluorobenzyl)-3-[(3-fluorobenzylamino)methyl]-3-hydroxypiperidin-2-one]"
4,6.00 to 8.00,"N#CCn1cc(N2CC[C@](O)(C(=O)NCc3cc(F)cc(Cl)c3)C2=O)cn1 [B116, N-(3-Chloro-5-fluorobenzyl)-(S)-1-(1-cyanomethyl-1H-pyrazol-4-yl)-3-hydroxy-2-oxopyrrolidine-3-carboxamide]"
5,6.00 to 8.00,"O=C1CCc2cc(N3CC[C@](O)(C(=O)NCCc4cccc(F)c4)C3=O)ccc2N1 [B6, N-[2-(3-Fluorophenyl)ethyl]-(S)-3-hydroxy-2-oxo-1-(2-oxo-1,2,3,4-tetrahydroquinolin-6-yl)-pyrrolidine-3-carboxamide]"
6,< 5.00,"COCCn1cc(N2CC[C@@](O)(C(=O)NCc3cc(F)cc(Cl)c3)C2=O)cn1 [B100, N-(3-Chloro-5-fluorobenzyl)-(R)-3-hydroxy-1-[1-(2-methoxy-ethyl)-1H-pyrazol-4-yl]-2-oxo-pyrrolidine-3-carboxamide]"
7,5.00 to 6.00,"COc1ccc(Cl)cc1N1CCC(O)(C(=O)NCc2cc(F)cc(Cl)c2)C1=O (stereo not shown) [B13, 1-(5-Chloro-2-methoxyphenyl)-3-hydroxy-2-oxopyrrolidine-3-carboxylic acid 3-chloro-5-fluorobenzylamide]"
8,6.00 to 8.00,"O=C(NCc1cc(F)cc(Cl)c1)[C@@]1(O)CCN(c2cnc3[nH]ncc3c2)C1=O [B75, N-(3-Chloro-5-fluorobenzyl)-(S)-3-hydroxy-2-oxo-1-(1H-pyrazolo[3,4-b]pyridin-5-yl)-pyrrolidine-3-carboxamide]"
9,6.00 to 8.00,"COCCn1cc(N2CC[C@](O)(C(=O)NCc3cc(F)cc(Cl)c3)C2=O)cn1 [B99, N-(3-Chloro-5-fluorobenzyl)-(S)-3-hydroxy-1-[1-(2-methoxy-ethyl)-1H-pyrazol-4-yl]-2-oxo-pyrrolidine-3-carboxamide]"
10,6.00 to 8.00,"O=C(NCCc1ccccc1F)[C@@]1(O)CCN(c2ccc3[nH]ccc3c2)C1=O [B14, (S)-3-hydroxy-1-(1H-indol-5-yl)-2-oxopyrrolidine-3-carboxylic acid[2-(2-fluorophenyl)ethyl]-amide]"
11,6.00 to 8.00,"O=C1N(CC2CCCCC2)CCCC1(O)CNCc1cc(F)cc(Cl)c1 (stereo not shown) [B18, 3-[(3-Chloro-5-fluorobenzylamino)methyl]-1-cyclohexylmethyl-3-hydroxy-piperidin-2-one]"
12,5.00 to 6.00,"O=C(NCCc1cc(F)cc(F)c1)[C@]1(O)CCN(c2ccc3[nH]ccc3c2)C1=O [B111, N-[2-(3,5-Difluorophenyl)ethyl]-(R)-3-hydroxy-1-(1H-indol-5-yl)-2-oxopyrrolidine-3-carboxamide]"
13,6.00 to 8.00,"COCCn1cc(N2CCC(O)(C(=O)NCc3cc(F)cc(Cl)c3)C2=O)cn1 (stereo not shown) [B82, N-(3-Chloro-5-fluorobenzyl)-3-hydroxy-1-[1-(2-methoxyethyl)-1H-pyrazol-4-yl]-2-oxo-pyrrolidine-3-carboxamide]"
14,5.00 to 6.00,"O=C1N(c2ccccc2)CCC1(O)CNCc1cccc(F)c1 (stereo not shown) [B48, 3-[(3-Fluorobenzylamino)-methyl]-3-hydroxy-1-phenyl-pyrrolidin-2-one]"
15,6.00 to 8.00,"O=C1CCc2cc(CN3CCC(O)(C(=O)NCc4cc(F)cc(Cl)c4)C3=O)ccc2N1 (stereo not shown) [B69, N-(3-Chloro-5-fluorobenzyl)-3-hydroxy-2-oxo-1-(2-oxo-1,2,3,4-tetrahydroquinolin-6-ylmethyl)-pyrrolidine-3-carboxamide]"
16,6.00 to 8.00,"O=C(NCCO)c1cc2cc(N3CC[C@](O)(C(=O)NCc4cc(F)cc(Cl)c4)C3=O)ccc2[nH]1 [B121, N-(2-hydroxyethyl)-5-[(S)-3-(3-chloro-5-fluorobenzyl-carbamoyl)-3-hydroxy-2-oxo-pyrrolidin-1-yl]-1H-indole-2-carboxamide]"
17,6.00 to 8.00,"Nc1ccccc1NC(=O)c1cc2cc(N3CC[C@](O)(C(=O)NCc4cc(F)cc(Cl)c4)C3=O)ccc2[nH]1 [B129, N-(2-Aminophenyl)-5-[(S)-3-(3-chloro-5-fluorobenzyl-carbamoyl)-3-hydroxy-2-oxo-pyrrolidin-1-yl]-1H-indole-2-carboxamide]"

# The next lines start with the compound.
row,Compound,pIC50
1,"NC(=O)c1cccc(N2CCC(O)(C(=O)NCCc3cc(F)cc(F)c3)C2=O)c1 (stereo not shown) [A201, N-[2-(3,5-Difluorophenyl)ethyl]-1-(3-carbamoylphenyl)-3-hydroxy-2-oxopyrrolidine-3-carboxamide]",6.00 to 8.00
2,"CCNC(=O)c1cc2cc(N3CC[C@@](O)(C(=O)NCc4cc(F)cc(Cl)c4)C3=O)ccc2o1 [A195, N-(3-Chloro-5-fluorobenzyl)-(R)-1-(2-ethylcarbamoylbenzofuran-5-yl)-3-hydroxy-2-oxopyrrolidine-3-carboxamide]",< 5.00
3,"Cc1cncc(N2CCC(O)(C(=O)NCc3cc(F)cc(Cl)c3)C2=O)c1 (stereo not shown) [A117, N-(3-Chloro-5-fluorobenzyl)-3-hydroxy-1-(5-methylpyridin-3-yl)-2-oxopyrrolidine-3-carboxamide]",6.00 to 8.00
4,"CCN[C@H]1CC[C@H](N2CCC(O)(C(=O)NCc3cc(F)cc(Cl)c3)C2=O)CC1 (stereo partly shown) [A127, N-(3-Chloro-5-fluorobenzyl)-1-(4-ethylaminocyclohexyl)-3-hydroxy-2-oxopyrrolidine-3-carboxamide]",5.00 to 6.00
5,"CCS(=O)(=O)N[C@H]1CC[C@H](N2CCC(O)(C(=O)NCc3cc(F)cc(Cl)c3)C2=O)CC1 (stereo partly shown) [A124, N-(3-Chloro-5-fluorobenzyl)-1-(4-ethanesulfonylamino-cyclohexyl)-3-hydroxy-2-oxo-pyrrolidine-3-carboxamide]",5.00 to 6.00
6,"O=C(NC1CC1)c1cccc(N2CC[C@](O)(C(=O)NCc3cc(F)cc(Cl)c3)C2=O)c1 [A75, N-(3-Chloro-5-fluorobenzyl)-(S)-1-(3-cyclopropylcarbamoylphenyl)-3-hydroxy-2-oxopyrrolidine-3-carboxamide]",6.00 to 8.00
7,"O=C1CCc2cc(N3CC[C@](O)(C(=O)NCc4c(F)cc(F)cc4F)C3=O)ccc2N1 [A236, N-(2,4,6-Trifluorobenzyl)-(S)-3-hydroxy-2-oxo-1-(2-oxo-1,2,3,4-tetrahydroquinolin-6-yl)-pyrrolidine-3-carboxamide]",6.00 to 8.00
8,"O=C(NCc1cc(F)cc(Cl)c1)[C@]1(O)CCCN(Cc2ccccc2)C1=O [A86, N-(3-Chloro-5-fluorobenzyl)-(R)-1-benzyl-3-hydroxy-2-oxo-piperidine-3-carboxamide]",< 5.00
9,"O=C(NCCc1cccc(F)c1)C1(O)CCN(c2ccc3[nH]ccc3c2)C1=O (stereo not shown) [A212, N-[2-(3-Fluorophenyl)ethyl]-3-hydroxy-1-(1H-indol-5-yl)-2-oxo-pyrrolidine-3-carboxamide]",6.00 to 8.00
10,"O=C(NCc1cc(F)cc(Cl)c1)C1(O)CCN(c2ccc3[nH]c(=O)ccc3c2)C1=O (stereo not shown) [A147, N-(3-Chloro-5-fluorobenzyl)-3-hydroxy-2-oxo-1-(2-oxo-1,2-dihydroquinolin-6-yl)pyrrolidine-3-carboxamide]",6.00 to 8.00
11,"COc1ccc(CN2CC[C@@](O)(C(=O)NCc3cc(F)cc(Cl)c3)C2=O)cc1 [A182, N-(3-Chloro-5-fluorobenzyl)-(R)-3-hydroxy-1-(4-methoxybenzyl)-2-oxopyrrolidine-3-carboxamide]",< 5.00
12,"NC(=O)c1cccc(N2CCC(O)(C(=O)NCCc3cccc(F)c3)C2=O)c1 (stereo not shown) [A177, N-[2-(3-Fluorophenyl)ethyl]-1-(3-carbamoylphenyl)-3-hydroxy-2-oxopyrrolidine-3-carboxamide]",6.00 to 8.00
13,"O=C1CCc2cc(N3CC[C@](O)(C(=O)NCCc4cc(F)cc(F)c4)C3=O)ccc2N1 [A221, N-[2-(3,5-Difluorophenyl)ethyl]-(S)-3-hydroxy-2-oxo-1-(2-oxo-1,2,3,4-tetrahydroquinolin-6-yl)-pyrrolidine-3-carboxamide]",6.00 to 8.00
14,"O=C(NCCCO)c1cccc(N2CC[C@](O)(C(=O)NCc3cc(F)cc(Cl)c3)C2=O)c1 [A94, N-(3-Chloro-5-fluorobenzyl)-(S)-3-hydroxy-1-[3-(3-hydroxy-propylcarbamoyl)phenyl]-2-oxo-pyrrolidine-3-carboxamide]",6.00 to 8.00
15,"CNC(=O)c1cccc(N2CC[C@@](O)(C(=O)NCc3cc(F)cc(Cl)c3)C2=O)c1 [A162, N-(3-Chloro-5-fluorobenzyl)-(R)-3-hydroxy-1-(3-methyl-carbamoylphenyl)-2-oxo-pyrrolidine-3-carboxamide]",< 5.00
16,O=C(NCCc1cc(F)cc(Cl)c1)C1(O)CCN(c2ccc3[nH]ncc3c2)C1=O (stereo not shown) [A168],6.00 to 8.00
17,"CNC(=O)[C@H]1CC[C@H](CN2CCC(O)(C(=O)NCc3cc(F)cc(Cl)c3)C2=O)CC1 (stereo partly shown) [A278, N-(3-Chloro-5-fluorobenzyl)-3-hydroxy-1-(4-methylcarbamoyl-cyclohexylmethyl)-2-oxo-pyrrolidine-3-carboxamide]",6.00 to 8.00
18,"O=C(NCc1cc(F)cc(Cl)c1)C1(O)C(=O)N(c2ccccc2)CC12COC2 (stereo not shown) [A113, N-(3-Chloro-5-fluorobenzyl)-8-hydroxy-7-oxo-6-phenyl-2-oxa-6-azaspiro[3.4]octane-8-carboxamide]",< 5.00
19,"N#Cc1cc2cc(N3CCC(O)(C(=O)NCc4cc(F)cc(Cl)c4)C3=O)ccc2[nH]1 (stereo not shown) [A217, N-(3-Chloro-5-fluorobenzyl)-1-(2-cyano-1H-indol-5-yl)-3-hydroxy-2-oxopyrrolidine-3-carboxamide]",6.00 to 8.00
20,"O=C(NCCCn1ccnc1)[C@@]1(O)CCN(c2ccccc2)C1=O [A58, N-(3-Imidazol-1-ylpropyl)-(S)-3-hydroxy-2-oxo-1-phenylpyrrolidine-3-carboxamide]",< 5.00
